Here are results for 30 molecules from patent US20060247261A1 (priority 2002, published 2006).

In this experiment the target is T1, human cannabinoid CB2 receptor (Homo sapiens, UniProt P34972).
T1 construct: expressed in transfected cells; host or cells: Saccharomyces cerevisiae strain MMY23 (expresses a chimeric Gpa1/human Galpha-i3 G-protein alpha subunit)
Kind of experiment: Cannabinoid CB2 receptor agonist activity, yeast reporter assay. Type of experiment: cell-based. The note with it: for Emax: read-out: efficacy (Emax) at the cloned human cannabinoid CB2 receptor. From the text:
Yeast (Saccharomyces cerevisiae) cells expressing the human cannabinoid CB2 receptor were generated by integration of an expression cassette into the ura3 chromosomal locus of yeast strain MMY23. This cassette consisted of DNA sequence encoding the human CB2 receptor flanked by the yeast GPD promoter to the 5′ end of CB2 and a yeast transcriptional terminator sequence to the 3′ end of CB2. MMY23 expresses a yeast/mammalian chimeric G-protein alpha subunit in which the C-terminal 5 amino acids of Gpa1 are replaced with the C-terminal 5 amino acids of human Gαi3 (as described in Brown et al. (2000), Yeast 16:11-22).
Agonists were prepared as 10 mM stocks in DMSO. […] Agonist solutions in DMSO (1% final assay volume) were transferred into black, clear bottom, microtitre plates from NUNC (96- or 384-well). […] Fluorescence was plotted against compound concentration and iteratively curve fitted using a four parameter fit to generate a concentration effect value.
On the technique in general: A reporter such as luciferase makes a cellular process visible.

The mark [1] stands for this setting: yeast (Saccharomyces cerevisiae) cells expressing human CB2, read-out: EC50 at the cloned human cannabinoid CB2 receptor.

Like-named read-outs stand apart in the source and are kept apart here.

T1 sequence (P34972 whole entry): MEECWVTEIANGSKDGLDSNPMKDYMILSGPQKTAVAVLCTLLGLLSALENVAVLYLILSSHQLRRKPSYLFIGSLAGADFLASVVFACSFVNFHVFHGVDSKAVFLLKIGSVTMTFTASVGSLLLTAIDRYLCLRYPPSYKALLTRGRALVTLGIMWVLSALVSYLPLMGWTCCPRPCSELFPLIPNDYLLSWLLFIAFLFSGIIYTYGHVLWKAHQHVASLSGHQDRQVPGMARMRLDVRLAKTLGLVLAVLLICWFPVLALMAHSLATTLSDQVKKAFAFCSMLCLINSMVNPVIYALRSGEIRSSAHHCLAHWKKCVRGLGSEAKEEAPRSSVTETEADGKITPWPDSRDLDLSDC

The term EC50 denotes the concentration needed to bring the measured effect to its halfway point. As a reminder, the Emax is the greatest response seen or fitted, relative to the assay's reference. Take `N#Cc1cccc(Nc2ncc(C(=O)NCc3ccccc3)c(C(F)(F)F)n2)c1` [Example 97, 2-(3-Cyano-phenylamino)-4-trifluoromethyl-pyrimidine-5-carboxylic acid benzylamide]: the EC50 is 0.02 to 1 µM and the maximal effect (Emax) was > 50%.

For `N#Cc1ccc(CNC(=O)c2cnc(Nc3cccc(Cl)c3Cl)nc2C(F)(F)F)cc1` [Example 65, 2-(2,3-Dichloro-phenylamino)-4-trifluoromethyl-pyrimidine-5-carboxylic acid N-(4-cyano-benzyl)amide], the EC50 is > 1 µM and the Emax is < 50%.

On to `O=C(NCc1ccc(F)c(C(F)(F)F)c1)c1cnc(Nc2cccc(Cl)c2)nc1C(F)(F)F` [Example 75, 2-(3-Chloro-phenylamino)-4-trifluoromethyl-pyrimidine-5-carboxylic acid N-(4-fluoro-3-trifluoromethyl-benzyl)amide], for which the concentration for a half-maximal effect (EC50) is > 1 µM and the Emax is < 50%. As to `O=C(NCc1ccnc(F)c1)c1cnc(Nc2ccc(Cl)c(Cl)c2)nc1C(F)(F)F` [Example 92, 2-(3,4-Dichloro-phenylamino)-4-trifluoromethyl-pyrimidine-5-carboxylic acid (2-fluoro-pyridin-4-ylmethyl)-amide], the EC50 lay within 0.02 to 1 µM and the Emax is > 50%. The matching figures for `O=C(NCc1ccnc(F)c1)c1cnc(Nc2ccc(Cl)cc2Cl)nc1C(F)(F)F` [Example 95, 2-(2,4-Dichloro-phenylamino)-4-trifluoromethyl-pyrimidine-5-carboxylic acid (2-fluoro-pyridin-4-ylmethyl)-amide]: 0.02 to 1 µM and > 50%.

As to `N#Cc1ccc(Nc2ncc(C(=O)NCc3ccc(F)cc3)c(C(F)(F)F)n2)cc1Cl` [Example 86, 2-(3-Chloro-4-cyano-phenylamino)-4-trifluoromethyl-pyrimidine-5-carboxylic acid 4-fluoro-benzylamide], the EC50 lay in the range of 0.02 to 1 µM and the Emax is > 50%. With `COc1ccccc1CNC(=O)c1cnc(Nc2cccc(Cl)c2)nc1C(F)(F)F` [2-(3-Chloro-phenylamino)-4-trifluoromethyl-pyrimidine-5-carboxylic acid 2-methoxy-benzylamide], the “activity in the CB2 assay (in words)” value (CB2 assay described herein) is “inactive”. `O=C(NCc1ccccc1)c1cnc(Nc2cccc(Br)c2)nc1C(F)(F)F` [Example 13, 2-(3-Bromophenylamino)-4-trifluoromethylpyrimidine-5-carboxylic acid benzyl-amide]: the EC50 was 0.02 to 1 µM and the Emax is > 50%. The matching figures for `O=C(NCc1ccc(F)cc1)c1cnc(Nc2cc(F)cc(F)c2)nc1C(F)(F)F` [Example 85, 2-(3,5-Difluoro-phenylamino)-4-trifluoromethyl-pyrimidine-5-carboxylic acid 4-fluoro-benzylamide]: 0.02 to 1 µM and > 50%.

As to `O=C(NCc1ccc(OC(F)(F)F)cc1)c1cnc(Nc2cccc(Cl)c2)nc1C(F)(F)F` [Example 62, 2-(3-Chloro-phenylamino)-4-trifluoromethyl-pyrimidine-5-carboxylic acid N-(4-trifluoromethoxybenzyl)amide], the EC50 was > 1 µM and the Emax is < 50%. In the case of `O=C(NCc1ccc(F)cc1)c1cnc(Nc2cccc(Cl)c2)nc1C(F)(F)F` [Example 5, 2-(3-Chlorophenylamino)-4-trifluoromethylpyrimidine-5-carboxylic acid 4 fluorobenzyl-amide], the EC50 under setting [1] was in the range of 0.02 to 1 µM. With `O=C(NCc1ccccc1)c1cnc(Nc2cccc(Cl)c2)nc1C(F)(F)F` [Example 1, 2-(3-Chlorophenylamino)-4-trifluoromethylpyrimidine-5-carboxylic acid benzyl-amide], the EC50 was 0.02 to 1 µM and the Emax was > 50%. As to `N#Cc1ccc(CNC(=O)c2cnc(Nc3cc(Cl)cc(Cl)c3)nc2C(F)(F)F)cc1` [Example 26, 2-(3,5-Dichlorophenylamino)-4-trifluoromethylpyrimidine-5-carboxylic acid 4-cyanobenzylamide], the EC50 lay in the range of 0.02 to 1 µM and the Emax was > 50%. The corresponding values for `O=C(NCc1ccncc1)c1cnc(Nc2c(Cl)cccc2Cl)nc1C(F)(F)F` [Example 69, 2-(2,6-Dichloro-phenylamino)-4-trifluorometbyl-pyrimidine-5-carboxylic acid N-(pyridin-4-ylmethyl)-amide] are > 1 µM and < 50%. The matching figures for `O=C(NCc1ccccc1)c1cnc(Nc2ccc(Cl)cc2Cl)nc1C(F)(F)F` [Example 8, 2-(2,4-Dichlorophenylamino)-4-trifluoromethyloyrimidine-5-carboxyllc acid benzyl-amide]: 0.02 to 1 µM and > 50%. The corresponding values for `O=C(NCc1ccncn1)c1cnc(Nc2cccc(F)c2)nc1C(F)(F)F` [Example 76, 2-(3-Fluoro-phenylamino)-4-trifluoromethyl-pyrimidine-5-carboxylic acid N-(pyrimidin-4-ylmethyl)-amide] are > 1 µM and < 50%. Regarding `CN(Cc1ccccc1)C(=O)c1cnc(Nc2ccc(Cl)c(Cl)c2)nc1C(F)(F)F` [Example 55, 2-(3,4-Dichloro-phenylamino)-4-trifluoromethyl-pyrimidine-5-carboxylic acid N-benzyl-N-methyl-amide], the EC50 is > 1 µM and the Emax was < 50%.

Consider `O=C(NCc1ccc(F)cc1Cl)c1cnc(Nc2cccc(Cl)c2)nc1C(F)(F)F` [Example 72, 2-(3-Chloro-phenylamino)-4-trifluoromethyl-pyrimidine-5-carboxylic acid N-(2-chloro-4-fluoro-benzyl)amide], for which the EC50 was > 1 µM and the Emax is < 50%.

Take `O=C(NCc1ccc(Br)cc1)c1cnc(Nc2cccc(Cl)c2)nc1C(F)(F)F` [Example 63, 2-(3-Chloro-phenylamino)-4-trifluoromethyl-pyrimidine-5-carboxylic acid N-(4-bromo-benzyl)amide]: the EC50 was > 1 µM and the Emax was < 50%. The matching figures for `O=C(NCc1ccnc(F)c1)c1cnc(Nc2cc(Cl)ccc2Cl)nc1C(F)(F)F` [Example 90, 2-(2,5-Dichloro-phenylamino)-4-trifluoromethyl-pyrimidine-5-carboxylic acid (2-fluoro-pyridin-4-ylmethyl)-amide]: 0.02 to 1 µM and > 50%. The corresponding values for `O=C(NCc1ccnc(F)c1)c1cnc(Nc2cccc(Cl)c2Cl)nc1C(F)(F)F` [Example 94, 2-(2,3-Dichloro-phenylamino)-4-trifluoromethyl-pyrimidine-5-carboxylic acid (2-fluoro-pyridin-4-ylmethyl)-amide] are 0.02 to 1 µM and > 50%. On to `O=C(NCc1ccc(F)cc1)c1cnc(Nc2cccc(Br)c2)nc1C(F)(F)F` [Example 24], for which the EC50 under setting [1] was 0.02 to 1 µM. `CN(Cc1ccccc1)C(=O)c1cnc(Nc2ccc(C#N)cc2)nc1C(F)(F)F` [Example 49, 2-(4-Cyano-phenylamino)-4-trifluoromethyl-pyrimidine-5-carboxylic acid N-benzyl-N-methyl-amide]: the EC50 is > 1 µM and the Emax was < 50%. The matching figures for `O=C(NCc1ccc(F)cc1)c1cnc(Nc2c(Cl)cccc2Cl)nc1C(F)(F)F` [Example 70, 2-(2,6-Dichloro-phenylamino)-4-trifluoromethyl-pyrimidine-5-carboxylic acid N-(4-fluoro-benzyl)amide]: > 1 µM and < 50%. The matching figures for `O=C(NCc1ccc(F)cc1)c1cnc(Nc2ccc(F)c(Cl)c2)nc1C(F)(F)F` [Example 82, 2-(3-Chloro-4-fluoro-phenylamino)-4-trifluoromethyl-pyrimidine-5-carboxylic acid 4-fluoro-benzylamide]: 0.02 to 1 µM and > 50%. The corresponding values for `N#Cc1ccc(CNC(=O)c2cnc(Nc3cccc(Br)c3)nc2C(F)(F)F)cc1` [Example 64, 2-(3-Bromo-phenylamino)-4-trifluoromethyl-pyrimidine-5-carboxylic acid N-(4-cyano-benzyl)amide] are > 1 µM and < 50%.

For the molecule `O=C(NCc1ccnc(F)c1)c1cnc(Nc2cc(Cl)cc(Cl)c2)nc1C(F)(F)F` [Example 91, 2-(3,5-Dichloro-phenylamino)-4-trifluoromethyl-pyrimidine-5-carboxylic acid (2-fluoro-pyridin-4-ylmethyl)-amide], the EC50 lay within 0.02 to 1 µM and the Emax is > 50%. The matching figures for `COc1ccc(Nc2ncc(C(=O)NCc3ccccc3)c(C(F)(F)F)n2)cc1` [Example 46, 2-(4-Methoxy-phenylamino)-4-trifluoromethyl-pyrimidine-5-carboxylic acid N-benzylamide]: > 1 µM and < 50%. The matching figures for `N#Cc1ccc(CNC(=O)c2cnc(Nc3ccc(Cl)cc3Cl)nc2C(F)(F)F)cc1` [Example 66, 2-(2,4-Dichloro-phenylamino)-4-trifluoromethyl-pyrimidine-5-carboxylic acid N-(4-cyano-benzyl)amide]: > 1 µM and < 50%. The corresponding values for `CN(Cc1ccccc1)C(=O)c1cnc(Nc2cccc(C#N)c2)nc1C(F)(F)F` [Example 48, 2-(3-Cyano-phenylamino)-4-trifluoromethyl-pyrimidine-5-carboxylic acid N-benzyl-N-methyl-amide] are > 1 µM and < 50%.
